Experimental data taken from patent US20210115104A1, “AMYLIN ANALOGUES” (Zealand Pharma A/S, priority 2015, published 2021).
*1 amine or outer side, *2 acyl side, *3 side chain or, on linkers, in order; H or OH if unused. Where a SMILES comes first, the peptide text is derived from it. Bridges are numbered along the chain shown (N, C = ends). [ ]: non-standard residue; d: D form. The star is where a group is joined. C20 diacid = O=C(O)CCCCCCCCCCCCCCCCCCC(=O)*; γGlu = O=C(O)[C@H](CCC(=O)[*:2])N[*:1]; Hyp = O=C(O)[C@@H]1C[C@@H](O)CN1; NMeI = CC[C@H](C)[C@H](NC)C(=O)O; Sar = CNCC(=O)O

Columns and labels:
[1] = Assessment of physical stability (Thioflavin T fibrillation); assay type: physicochemical; set-up: key: FND = fibrillation not detected; FD = fibrillation detected; conditions: 1 mg/ml, 40° C., ThT
Procedure, shortened: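 1 mg/ml peptide with 40 μM ThT in 50 mM phosphate pH 7.0, 50 mM histidine pH 7.0 or 50 mM acetate pH 4.0, in triplicate. Fluorescence read every 10 min after 300 s agitation over 96 h at 40 °C. Lag-time (h) is the intersection of linear fits to stable and growth phases.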

[2] = molecular target: T1, human amylin receptor 3 (hAMYR3), hCTR2 co-expressed with hRAMP3 (Homo sapiens, UniProt O60896+P30988); experiment: hAMYR3 cAMP assay (AlphaScreen) in COS7 cells; assay type: cell-based; conditions: cAMP induction, COS7 cells expressing hAMYR3; Table 1; read-out: hAMYR3 EC50
T1 construct: expressed in transfected cells
T1 sequence (P30988 25-474): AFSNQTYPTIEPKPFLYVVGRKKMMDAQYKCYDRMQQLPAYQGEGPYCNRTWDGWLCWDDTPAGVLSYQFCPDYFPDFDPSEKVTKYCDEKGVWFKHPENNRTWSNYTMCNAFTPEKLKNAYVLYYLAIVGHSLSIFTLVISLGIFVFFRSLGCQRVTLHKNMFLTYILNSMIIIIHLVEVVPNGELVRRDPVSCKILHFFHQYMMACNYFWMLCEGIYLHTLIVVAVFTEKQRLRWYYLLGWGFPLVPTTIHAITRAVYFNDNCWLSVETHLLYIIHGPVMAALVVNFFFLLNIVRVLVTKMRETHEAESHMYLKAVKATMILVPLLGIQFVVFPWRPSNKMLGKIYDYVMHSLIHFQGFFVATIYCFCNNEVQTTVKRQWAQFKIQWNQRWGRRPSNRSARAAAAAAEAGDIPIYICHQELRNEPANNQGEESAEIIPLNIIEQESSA
T1 sequence (O60896 24-148 partner): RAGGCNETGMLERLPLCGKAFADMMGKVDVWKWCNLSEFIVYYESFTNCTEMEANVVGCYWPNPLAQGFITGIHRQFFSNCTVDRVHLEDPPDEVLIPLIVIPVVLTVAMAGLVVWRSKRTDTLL
Excerpt: The cell line COS7, originating from African Green Monkey kidney fibroblast cells, was used for establishment of the stable cell lines described below. The COS7 cellular background was used due to it being RAMP naïve, and as such it provides the best available system for testing of the monomeric hCTR and different heterodimeric amylin receptor subtypes functionally generated by introduction of the individual RAMPs.
A cell line expressing the human amylin receptor 3 (hAMYR3) was generated in the COS7 cellular background as stable clones. In brief, hCTR2 (GI:4502547) and hRAMP3 (GI:118572586) were amplified by PCR using primers encoding terminal restriction sites for subcloning. The 5′-end primers additionally encoded a near Kozak consensus sequence to ensure efficient translation. The fidelity of the DNA encoding the receptor was confirmed by DNA sequencing. The PCR products encoding the receptor were subcloned into a proprietary tri-cistronic mammalian expression vector with RAMP3, hCTR2 and neomycin (G418) resistance marker. The mammalian expression vector encoding the receptor was transfected into COS7 cells by a standard liposome transfection method. 48 hours post-transfection, cells were seeded for limited dilution cloning and selected with 1 mg/ml G418 in the culture medium. After 3 weeks, surviving colonies of hAMY3R-expressing cells were picked, propagated and tested in the amylin efficacy assay as described in Example 3 below. The functional generation of the amylin receptor phenotype was verified in the efficacy assay by a left-shifted efficacy response to amylin relative to monomeric calcitonin receptor, and one hAMYR3-expressing clone was chosen for compound profiling.
In vitro activity of test peptides at the hCTR2 and hAMYR3 receptors was assessed by measuring the induction of cAMP following stimulation of the receptor using the AlphaScreen® cAMP Assay kit from Perkin-Elmer.
Briefly, COS7 cells expressing hCTR2 (see Example 2, above) were seeded at 30-40,000 cells per well in 96-well microtiter plates coated with 0.01% poly-L-lysine, and grown for 1 day in culture in 100 μl growth medium [DMEM, 10% FCS, Penicillin (100 IU/ml), Streptomycin (100 μg/ml)]. On the day of analysis, growth medium was removed and the cells were washed once with 200 μl Tyrode buffer [Tyrode's Salts (9.6 g/I), 10 mM HEPES, pH 7.4]. Cells were incubated in 100 μl Tyrode buffer containing increasing concentrations of test peptides, 100 µM IBMX and 0.1% casein for 15 min at 37° C. The reaction was stopped by carefully decanting off the compound/buffer medium and replacing it with lysis/detection buffer (80 μl 0.1% w/v BSA, 5 mM HEPES, 0.3% v/v Tween-20 in deionized water). After incubation at room temperature for 10 min., the cAMP content of the resulting cell lysate was estimated according to the AlphaScreen® cAMP Assay manufacturer's instructions. EC50 values were estimated by computer-aided curve fitting using the 4-parameter logistic (4PL) non-linear model.

Structure (SMILES)	Fibrillation pH 4.0 (Ac) ([1]; 50 mM acetate buffer pH 4.0, 96 hours)	Fibrillation pH 7.0 (His) ([1]; 50 mM histidine buffer pH 7.0, 96 hours)	Fibrillation pH 7.0 (Phos.) ([1]; 50 mM phosphate buffer pH 7.0, 96 hours)	EC50 [2]
CC[C@H](C)[C@@H](C(=O)N[C@@H](CC(C)C)C(=O)N[C@@H](CO)C(=O)N[C@@H](CO)C(=O)N[C@H](C(=O)N[C@@H](CCC(=O)O)C(=O)N[C@H](C(=O)NCC(=O)N[C@@H](CO)C(=O)N[C@@H](CCC(=O)O)C(=O)N[C@H](C(=O)N1CCC[C@H]1C(N)=O)[C@@H](C)O)C(C)C)[C@@H](C)O)N(C)C(=O)[C@H](C)NC(=O)CN(C)C(=O)[C@H](Cc1ccccc1)NC(=O)[C@H](CO)NC(=O)[C@H](CO)NC(=O)[C@H](CCCNC(=N)N)NC(=O)[C@@H](NC(=O)[C@H](CC(C)C)NC(=O)[C@H](Cc1ccccc1)NC(=O)[C@H](Cc1c[nH]cn1)NC(=O)[C@H](C)NC(=O)[C@H](CC(C)C)NC(=O)[C@H](CCCNC(=N)N)NC(=O)[C@H](CCC(=O)O)NC(=O)[C@@H](NC(=O)[C@H](C)NC(=O)[C@@H]1CSSC[C@H](NC(=O)[C@H](CCCNC(=N)N)NC(=O)CC[C@H](NC(=O)CCCCCCCCCCCCCCCCCCC(=O)O)C(=O)O)C(=O)NCC(=O)N[C@@H]([C@@H](C)O)C(=O)N[C@@H](C)C(=O)N[C@@H]([C@@H](C)O)C(=O)N1)[C@@H](C)O)C(C)C [Compound 22, [19CD]-isoGlu-R-C( )-GTAT-C( )-ATERLAHFLVRSSF-Gly(Me)-A-Ile(Me)-LSSTEVGSETP-NH2] ({C20 diacid-γGlu}-RCGTATCATERLAHFLVRSSF[Sar]A[NMeI]LSSTEVGSETP-NH2; disulfide 2-7)	FND	FD	FND	0.59 nM
CC[C@H](C)[C@@H](C(=O)N[C@@H](CC(C)C)C(=O)N[C@@H](CO)C(=O)N[C@@H](CO)C(=O)N[C@H](C(=O)N[C@@H](CC(=O)O)C(=O)N[C@H](C(=O)NCC(=O)N[C@@H](CO)C(=O)N[C@@H](CC(=O)O)C(=O)N[C@H](C(=O)N1CCC[C@H]1C(N)=O)[C@@H](C)O)C(C)C)[C@@H](C)O)N(C)C(=O)[C@H](C)NC(=O)CN(C)C(=O)[C@H](Cc1ccccc1)NC(=O)[C@H](CO)NC(=O)[C@H](CO)NC(=O)[C@H](CCCNC(=N)N)NC(=O)[C@@H](NC(=O)[C@H](CC(C)C)NC(=O)[C@H](Cc1ccccc1)NC(=O)[C@H](Cc1c[nH]cn1)NC(=O)[C@H](C)NC(=O)[C@H](CC(C)C)NC(=O)[C@H](CCCNC(=N)N)NC(=O)[C@H](CC(=O)O)NC(=O)[C@@H](NC(=O)[C@H](C)NC(=O)[C@@H]1CSSC[C@H](NC(=O)[C@H](CCCNC(=N)N)NC(=O)CC[C@H](NC(=O)CCCCCCCCCCCCCCCCCCC(=O)O)C(=O)O)C(=O)N2CCC[C@H]2C(=O)N[C@@H]([C@@H](C)O)C(=O)N[C@@H](C)C(=O)N[C@@H]([C@@H](C)O)C(=O)N1)[C@@H](C)O)C(C)C [Compound 23, [19CD]-isoGlu-R-C( )-PTAT-C( )-ATDRLAHFLVRSSF-Gly(Me)-A-Ile(Me)-LSSTDVGSDTP-NH2] ({C20 diacid-γGlu}-RCPTATCATDRLAHFLVRSSF[Sar]A[NMeI]LSSTDVGSDTP-NH2; disulfide 2-7)	–	–	–	0.13 nM
CC[C@H](C)[C@@H](C(=O)N[C@@H](CC(C)C)C(=O)N[C@@H](CO)C(=O)N[C@@H](CO)C(=O)N[C@H](C(=O)N[C@@H](CC(=O)O)C(=O)N[C@H](C(=O)NCC(=O)N[C@@H](CO)C(=O)N[C@@H](CC(N)=O)C(=O)N[C@H](C(=O)N1CCC[C@H]1C(N)=O)[C@@H](C)O)C(C)C)[C@@H](C)O)N(C)C(=O)[C@H](C)NC(=O)CN(C)C(=O)[C@H](Cc1ccccc1)NC(=O)[C@H](CO)NC(=O)[C@H](CO)NC(=O)[C@H](CCCNC(=N)N)NC(=O)[C@H](Cc1c[nH]cn1)NC(=O)[C@H](CC(C)C)NC(=O)[C@H](Cc1ccccc1)NC(=O)[C@H](Cc1c[nH]cn1)NC(=O)[C@H](C)NC(=O)[C@H](CC(C)C)NC(=O)[C@H](CCCNC(=N)N)NC(=O)[C@H](CC(=O)O)NC(=O)[C@@H](NC(=O)[C@H](C)NC(=O)[C@@H]1CSSC[C@H](NC(=O)[C@H](CCCNC(=N)N)NC(=O)CC[C@H](NC(=O)CCCCCCCCCCCCCCCCCCC(=O)O)C(=O)O)C(=O)N2CCC[C@H]2C(=O)N[C@@H]([C@@H](C)O)C(=O)N[C@@H](C)C(=O)N[C@@H]([C@@H](C)O)C(=O)N1)[C@@H](C)O [Compound 25, [19CD]-isoGlu-R-C( )-PTAT-C( )-ATDRLAHFLHRSSF-Gly(Me)-A-Ile(Me)-LSSTDVGSNTP-NH2] ({C20 diacid-γGlu}-RCPTATCATDRLAHFLHRSSF[Sar]A[NMeI]LSSTDVGSNTP-NH2; disulfide 2-7)	–	–	–	0.094 nM
CC[C@H](C)[C@@H](C(=O)N[C@@H](CC(C)C)C(=O)N[C@@H](CO)C(=O)N[C@@H](CO)C(=O)N[C@H](C(=O)N[C@@H](CCC(=O)O)C(=O)N[C@H](C(=O)NCC(=O)N[C@@H](CO)C(=O)N[C@@H](CCC(=O)O)C(=O)N[C@H](C(=O)N1CCC[C@H]1C(N)=O)[C@@H](C)O)C(C)C)[C@@H](C)O)N(C)C(=O)[C@H](C)NC(=O)CN(C)C(=O)[C@H](Cc1ccccc1)NC(=O)[C@H](CO)NC(=O)[C@H](CO)NC(=O)[C@H](CCCNC(=N)N)NC(=O)[C@H](Cc1c[nH]cn1)NC(=O)[C@H](CC(C)C)NC(=O)[C@H](Cc1ccccc1)NC(=O)[C@H](Cc1c[nH]cn1)NC(=O)[C@H](C)NC(=O)[C@H](CC(C)C)NC(=O)[C@H](CCCNC(=N)N)NC(=O)[C@H](CCC(=O)O)NC(=O)[C@@H](NC(=O)[C@H](C)NC(=O)[C@@H]1CSSC[C@H](NC(=O)[C@H](CCCNC(=N)N)NC(=O)CC[C@H](NC(=O)CCCCCCCCCCCCCCCCCCC(=O)O)C(=O)O)C(=O)NCC(=O)N[C@@H]([C@@H](C)O)C(=O)N[C@@H](C)C(=O)N[C@@H]([C@@H](C)O)C(=O)N1)[C@@H](C)O [Compound 26, [19CD]-isoGlu-R-C( )-GTAT-C( )-ATERLAHFLHRSSF-Gly(Me)-A-Ile(Me)-LSSTEVGSETP-NH2] ({C20 diacid-γGlu}-RCGTATCATERLAHFLHRSSF[Sar]A[NMeI]LSSTEVGSETP-NH2; disulfide 2-7)	–	–	–	0.12 nM
CC[C@H](C)[C@@H](C(=O)N[C@@H](CC(C)C)C(=O)N[C@@H](CO)C(=O)N[C@@H](CO)C(=O)N[C@H](C(=O)N[C@@H](CCC(=O)O)C(=O)N[C@H](C(=O)NCC(=O)N[C@@H](CO)C(=O)N[C@@H](Cc1ccccc1)C(=O)N[C@H](C(=O)N1C[C@H](O)C[C@H]1C(N)=O)[C@@H](C)O)C(C)C)[C@@H](C)O)N(C)C(=O)[C@H](C)NC(=O)CN(C)C(=O)[C@H](Cc1ccccc1)NC(=O)[C@H](CO)NC(=O)[C@H](CO)NC(=O)[C@H](CCCNC(=N)N)NC(=O)[C@@H](NC(=O)[C@H](CC(C)C)NC(=O)[C@H](Cc1ccccc1)NC(=O)[C@H](CC(=O)O)NC(=O)[C@H](C)NC(=O)[C@H](CC(C)C)NC(=O)[C@H](CCCNC(=N)N)NC(=O)[C@H](CCC(=O)O)NC(=O)[C@@H](NC(=O)[C@H](C)NC(=O)[C@@H]1CSSC[C@H](NC(=O)[C@H](CCCNC(=N)N)NC(=O)CC[C@H](NC(=O)CCCCCCCCCCCCCCCCCCC(=O)O)C(=O)O)C(=O)NCC(=O)N[C@@H]([C@@H](C)O)C(=O)N[C@@H](C)C(=O)N[C@@H]([C@@H](C)O)C(=O)N1)[C@@H](C)O)[C@@H](C)O [Compound 42, [19CD]-isoGlu-R-C( )-GTAT-C( )-ATERLADFLTRSSF-Gly(Me)-A-Ile(Me)-LSSTEVGSFT-Hyp-NH2] ({C20 diacid-γGlu}-RCGTATCATERLADFLTRSSF[Sar]A[NMeI]LSSTEVGSFT[Hyp]-NH2; disulfide 2-7)	–	–	–	0.34 nM
